Reference: US20230322797A1, “SOLID FORMS, PHARMACEUTICAL COMPOSITIONS AND PREPARATION OF HETEROAROMATIC MACROCYCLIC ETHER COMPOUNDS” (Nuvalent, Inc., priority 2022, published 2023)
Structures can show the parent of a compound that is named as a salt.

Experiments:
Format in all cases: physicochemical
[1] = Solubility of Compound 1 salts in organic solvents (solvent volumes)
Experimental: Preparation of Additional Salts: Additional salts shown in the Table below were prepared using procedures similar to those described above and the solubility of the resulting salts of Compound 1 was evaluated.

[2] = Stability study of Compound 1 drug substance; conditions: 1 month / three months (Example 10)
Experimental: A stability study is conducted for Compound 1. Samples were stored at: 30° C.±2° C./65%±5% Relative Humidity (RH), or 40° C.±2° C./75%±5% RH. At regular intervals (e.g., initial, 1, 3, 6, 9, 12, 18, 24, and 36 months), tests are performed for description, assay, related substances, water content, polymorphic form, and chiral purity.
A stability study was conducted for Compound 1 crystalline free base Form 2. Samples were stored at: (1) 30° C.±2° C./65%±5% Relative Humidity (RH), with data collected at 0, 1, 3, 6, 9, and 12 months; and (2) 40° C.±2° C./75%±5% RH, with data collected at 0, 1, 3, and 6 months. At the indicated time points, tests were performed for description, assay, related substances, water content, polymorphic form, and chiral purity.

[3] = Desolvation experiments on solvated forms (heating, then XRPD)
Experimental: Desolvation experiments were carried out on the solvated forms identified during the polymorph screen to establish the relationships between the forms. Samples were heated to a temperature at which the solids fully desolvated (based on TG/DSC characterisation data) and where exothermic events were observed after desolvation a separate experiment was carried out to assess for additional solid forms.

[4] = Solubility of salts of Compound 2 and free base in distilled water (gravimetric)
Experimental: Solubility of the scaled-up salts of Compound 2 and free base Compound 2 was assessed in distilled water at RT. Approximately 30 mg of solid was weighed directly into 2 mL vials, and a 6 mm stir bar was added to each vial. Water was then incrementally added to the vials (starting with 1 vol.) and the resulting slurries were left to stir for 10-15 min prior to the next addition. As all solids remained in slurries upon the addition of 1 mL of water, the gravimetric method was adopted, and the vials were stirred at RT for 3 days before centrifuging. Supernatant solutions were recovered and evaporated to dryness at 50° C. in atmosphere on a hot plate, then placed at 50° C. under vacuum (˜−29 inHg) for 3 h before final weighing.

[5] = target temperature 150 °C, after desolvation
[6] = target temperature 200 °C, after exothermic event

Compound | Solubility, Volume (at 10-20° C.) ([1]; 2-MeTHF) | Solubility, Volume (at 10-20° C.) ([1]; Acetone) | Solubility, Volume (at 10-20° C.) ([1]; CPME) | Solubility, Volume (at 10-20° C.) ([1]; EtOAc) | Solubility, Volume (at 10-20° C.) ([1]; IPA) | Solubility, Volume (at 10-20° C.) ([1]; IPAc) | Solubility, Volume (at 10-20° C.) ([1]; MeCN) | Solubility, Volume (at 10-20° C.) ([1]; THF) | Solubility, Volume (at 10-20° C.) ([1]; Toluene) | Solubility, Volume (at 10-20° C.) ([1]; t-AmOH) | Solid Form post-heating [3, 5] | also measured
CCn1nc(Cl)c2c1-c1cnc(N)c(c1)O[C@H](C)c1cc(F)ccc1-c1nn(C)cc1C2 [Citric Acid salt] | 8-10 V | 6-8 V | 330 V | >400 V | 24-28 V | >400 V | 300-400 V | 10-12 V | >400 V | 86-90 V | – | –
CCn1nc(Cl)c2c1-c1cnc(N)c(c1)O[C@H](C)c1cc(F)ccc1-c1nn(C)cc1C2 [Compound 1] | – | – | – | – | – | – | – | – | – | – | – | Chemical and physical stability (description, assay, related substances, water content, polymorphic form, chiral purity) ([2]; 30° C.±2° C./65%±5% RH): No meaningful changes; Chemical and physical stability (description, assay, related substances, water content, polymorphic form, chiral purity) ([2]; 40° C.±2° C./75%±5% RH): No meaningful changes
CCn1nc(Cl)c2c1-c1cnc(N)c(c1)O[C@H](C)c1cc(F)ccc1-c1nn(C)cc1C2 [Form 1] | – | – | – | – | – | – | – | – | – | – | Form 2 | Solid Form post-heating ([3]; target temperature 105 °C, after desolvation): Form 2
CCn1nc(Cl)c2c1-c1cnc(N)c(c1)O[C@H](C)c1cc(F)ccc1-c1nn(C)cc1C2 [Form 4] | – | – | – | – | – | – | – | – | – | – | – | Solid Form post-heating ([3]; target temperature 132 °C, after desolvation): Form 2; Solid Form post-heating ([3]; target temperature 170 °C, after exothermic event): Form 2
CCn1nc(Cl)c2c1-c1cnc(N)c(c1)O[C@H](C)c1cc(F)ccc1-c1nn(C)cc1C2 [Form 7] | – | – | – | – | – | – | – | – | – | – | – | Solid Form post-heating ([3]; target temperature 134 °C, after desolvation): Form 2
CCn1nc(Cl)c2c1-c1cnc(N)c(c1)O[C@H](C)c1cc(F)ccc1-c1nn(C)cc1C2 [Form 8] | – | – | – | – | – | – | – | – | – | – | Form 2 | Solid Form post-heating [3, 6]: Form 2
CCn1nc(Cl)c2c1-c1cnc(N)c(c1)O[C@H](C)c1cc(F)ccc1-c1nn(C)cc1C2 [Form 9] | – | – | – | – | – | – | – | – | – | – | Form 2 | –
CCn1nc(Cl)c2c1-c1cnc(N)c(c1)O[C@H](C)c1cc(F)ccc1-c1nn(C)cc1C2 [Form 10] | – | – | – | – | – | – | – | – | – | – | Form 2 | –
CCn1nc(Cl)c2c1-c1cnc(N)c(c1)O[C@H](C)c1cc(F)ccc1-c1nn(C)cc1C2 [Form 11] | – | – | – | – | – | – | – | – | – | – | – | Solid Form post-heating ([3]; target temperature 130 °C, after desolvation): Form 2; Solid Form post-heating [3, 6]: Form 2
CCn1nc(Cl)c2c1-c1cnc(N)c(c1)O[C@H](C)c1cc(F)ccc1-c1nn(C)cc1C2 [Form 12] | – | – | – | – | – | – | – | – | – | – | Form 2 | –
CCn1nc(Cl)c2c1-c1cnc(N)c(c1)O[C@H](C)c1cc(F)ccc1-c1nn(C)cc1C2 [Form 13] | – | – | – | – | – | – | – | – | – | – | Form 2 | –
CCn1nc(Cl)c2c1-c1cnc(N)c(c1)O[C@H](C)c1cc(F)ccc1-c1nn(C)cc1C2 [Form 15] | – | – | – | – | – | – | – | – | – | – | Amorphous | Solid Form post-heating [3, 6]: Form 2
CCn1cc(Cc2cn(C)nc2-c2ccc(F)cc2[C@@H](C)Oc2cc(Br)cnc2N)c(Cl)n1 [Free Base] | – | – | – | – | – | – | – | – | – | – | – | Solubility (mg solid/mL water) ([4]; distilled water, RT, stirred 3 days, gravimetric): <3 mg solid/mL water; XRPD Pattern Recovered ([4]; solid recovered after slurry in water at RT): Amorphous
CCn1nc(Cl)c2c1-c1cnc(N)c(c1)O[C@H](C)c1cc(F)ccc1-c1nn(C)cc1C2 [Fumaric Acid salt] | 8-10 V | 8-10 V | 50-60 V | 80-90 V | 8-9 V | 90-100 V | 150-200 V | 3-4 V | >400 V | 22-24 V | – | –
CCn1nc(Cl)c2c1-c1cnc(N)c(c1)O[C@H](C)c1cc(F)ccc1-c1nn(C)cc1C2 [H3PO4 salt] | >160 V | 58-60 V | >500 V | >100 V | 140-150 V | >400 V | >400 V | >160 V | >400 V | >400 V | – | –
CCn1nc(Cl)c2c1-c1cnc(N)c(c1)O[C@H](C)c1cc(F)ccc1-c1nn(C)cc1C2 [HCl salt] | >400 V | 22-24 V | >500 V | >400 V | 8-10 V | >400 V | 8-10 V | 300-400 V | >400 V | 18-20 V | – | –
CCn1nc(Cl)c2c1-c1cnc(N)c(c1)O[C@H](C)c1cc(F)ccc1-c1nn(C)cc1C2 [L-Tartaric Acid Salt] | 4-6 V | 2-4 V | 60-70 V | 12-14 V | 18-20 V | 52-56 V | 30-32 V | 8-10 V | >400 V | 18-20 V | – | –
CCn1nc(Cl)c2c1-c1cnc(N)c(c1)O[C@H](C)c1cc(F)ccc1-c1nn(C)cc1C2 [MSA salt] | >400 V | 56-60 V | >400 V | 300-400 V | 56-60 V | 260-300 V | 6-8 V | 60-100 V | >400 V | 340-360 V | – | –
CCn1nc(Cl)c2c1-c1cnc(N)c(c1)O[C@H](C)c1cc(F)ccc1-c1nn(C)cc1C2 [Maleic Acid salt] | 50-60 V | 2-4 V | 220 V | 20-30 V | 70-80 V | 20-30 V | 16-20 V | 2-4 V | >400 V | 6-8 V | – | –
CCn1nc(Cl)c2c1-c1cnc(N)c(c1)O[C@H](C)c1cc(F)ccc1-c1nn(C)cc1C2 [Salicylic acid salt] | 18-20 V | 26-28 V | 100-140 V | 26-30 V | 300-400 V | 56-60 V | 90-100 V | 4-6 V | 320-360 V | >400 V | – | –
CCn1nc(Cl)c2c1-c1cnc(N)c(c1)O[C@H](C)c1cc(F)ccc1-c1nn(C)cc1C2 [TsOH salt] | >400 V | 10-12 V | >400 V | 18-20 V | >400 V | 18-20 V | 8-10 V | 280-300 V | >400 V | >400 V | – | –
